Assay results taken from PubChem BioAssay (NCI).
Values joined by “and” are separate entries in the source; they are usually repeats but may differ in a detail not shown here. Identical values can stand only once.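 Results reflect a 48-hour exposure of cells in 96-well plates to compound at five concentrations. At the GI50, growth is halved. TGI: concentration producing complete growth inhibition.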

Legend:
Assay in all cases: DTP human tumour cell line panel, 48 h
MOLT-4 leukemia = test system: MOLT-4 leukemia
NCI-H226 lung = test system: NCI-H226 lung
HOP-62 NSCLC = test system: HOP-62 NSCLC
SK-MEL-5 melanoma = test system: SK-MEL-5 melanoma
BT-549 breast = test system: BT-549 breast
HCT-116 colon = test system: HCT-116 colon
SK-MEL-2 melanoma = test system: SK-MEL-2 melanoma
HOP-92 NSCLC = test system: HOP-92 NSCLC
CCRF-CEM leukemia = test system: CCRF-CEM leukemia
HT29 colon = test system: HT29 colon

Row | Compound | GI50 (MOLT-4 leukemia) | TGI (MOLT-4 leukemia) | GI50 (NCI-H226 lung) | TGI (NCI-H226 lung) | GI50 (HOP-62 NSCLC) | TGI (HOP-62 NSCLC) | GI50 (SK-MEL-5 melanoma) | TGI (SK-MEL-5 melanoma) | GI50 (BT-549 breast) | TGI (BT-549 breast) | GI50 (HCT-116 colon) | TGI (HCT-116 colon) | GI50 (SK-MEL-2 melanoma) | TGI (SK-MEL-2 melanoma) | GI50 (HOP-92 NSCLC) | TGI (HOP-92 NSCLC) | GI50 (CCRF-CEM leukemia) | TGI (CCRF-CEM leukemia) | GI50 (HT29 colon) | TGI (HT29 colon)
1 | C=C1C(=O)O[C@H]2[C@H]1CC/C(COC(=O)/C=C/c1cccnc1)=C\CC[C@@]1(C)O[C@@H]21 | 1.75 µM | 4.9 µM | 2.68 µM | 9.98 µM | 11.5 µM | 24.6 µM | 3.37 µM | 12.6 µM | 1.18 µM | 2.68 µM | 0.371 µM | 1.52 µM | 3.88 µM | 12.7 µM | 0.853 µM | 2.74 µM | 0.338 µM | 3.73 µM | 2.23 µM | 6.03 µM
2 | O=C(O)CSCC(=O)c1ccccc1 | – | > 100 µM | – | > 100 µM | – | > 100 µM | – | > 100 µM | – | > 100 µM | – | > 100 µM | – | > 100 µM | – | > 100 µM | – | – | – | > 100 µM
3 | O=C(O)C1CCCN1Cc1c[nH]c2ccccc12 (stereo not drawn) | – | > 100 µM | – | > 100 µM | – | > 100 µM | – | > 100 µM | – | > 100 µM | – | > 100 µM | – | > 100 µM | – | > 100 µM | – | > 100 µM | – | > 100 µM
4 | CCOC(=O)c1sc2ncn(Cc3cccc(Cl)c3)c(=O)c2c1C | 13.2 µM | 25.9 µM | 12.9 µM | 25.8 µM | 12 µM | 24.4 µM | 14.9 µM | 28.1 µM | 17.2 µM | 30.9 µM | 12.3 µM | 24.8 µM | 15.1 µM | 29.1 µM | 12.2 µM | 24.5 µM | – | – | 19.3 µM | 33.4 µM
5 | O=C(CSc1nc2ccc([N+](=O)[O-])cc2[nH]1)Nc1cccc(C(F)(F)F)c1 | 2.71 µM | 19.5 µM | 1.69 µM | 9.27 µM | 2.56 µM | 10.8 µM | 1.03 µM | 2.57 µM | 2.63 µM | 11.6 µM | 2.69 µM | 12.1 µM | 1.96 µM | 5.99 µM | 0.3 µM | 2.82 µM | 2.58 µM | > 60.1 µM | 2.78 µM | 11.3 µM
6 | COc1cccc2c(Nc3ccc(C(=O)NCCNCCO)cc3)cc(-c3ccccc3)nc12 | – | – | 56.1 µM | > 100 µM | 35.4 µM | > 100 µM | 38.6 µM | > 100 µM | 37.3 µM | > 100 µM | 34.6 µM | > 100 µM | 19.5 µM | 40.8 µM | 16 µM | 51.4 µM | 20.2 µM | 48.3 µM | 36 µM | > 100 µM
7 | CC(=O)C(C(=N)C#N)C(=O)Nc1ccccc1 (stereo not drawn) | – | > 100 µM | – | > 100 µM | – | > 100 µM | – | > 100 µM | – | > 100 µM | – | > 100 µM | – | > 100 µM | – | > 100 µM | – | > 100 µM | – | > 100 µM
8 | Cc1c(C(=O)CCl)c(=O)n(-c2ccccc2)n1C | 2.48 µM | 11.5 µM | 13.3 µM | 33.2 µM | 11.5 µM | 27.3 µM | 3.66 µM | 14.5 µM | 2.46 µM | 12.8 µM | 2.86 µM | 10.4 µM | 3.99 µM | 14.5 µM | 1.56 µM | 13.2 µM | 1.01 µM | 4.82 µM | 3.25 µM | 12.9 µM
9 | O=C1c2cccnc2-c2nc(-c3ccccn3)cc3c2c1nc1ccccc13 | 0.211 µM | 4.09 µM | 0.936 µM | 2.89 µM | 0.139 µM | 1.49 µM | 0.265 µM | 1.65 µM | 0.249 µM | 0.672 µM | 0.0885 µM | 0.332 µM | 1.06 µM | 2.52 µM | 0.241 µM | 0.729 µM | 0.0619 µM | – | 0.85 µM | 2.95 µM
10 | Clc1ccc(Nc2ccnc(NCCNc3ccnc4cc(Cl)ccc34)n2)cc1 | 1.49 µM | 3.55 µM | – | – | 1.27 µM | 2.66 µM | 1.31 µM | 2.59 µM | 1.5 µM | 3.2 µM | 0.522 µM | 2.12 µM | 1.96 µM | 3.5 µM | 0.126 µM | 2 µM | 1.01 µM | 2.62 µM | 0.615 µM | 2.07 µM
11 | Cc1c2ncccc2c(C)c2c1[nH]c1ccc(O)cc12 | – | 3.56 µM and 2.13 µM | 7.8 µM | 22.2 µM and 17.6 µM | 4.01 µM and 5.07 µM | 10.8 µM and 59.5 µM | 3.95 µM | 20.4 µM and 15 µM | – | 29.3 µM | 2.91 µM and 6.58 µM | 11 µM and 64.6 µM | – | 97.5 µM | – | 17.3 µM | 4.65 µM | 5.49 µM | – | 32.3 µM
12 | Cc1c(C(=O)N/N=C/c2ccc(O)cc2)nnn1-c1ccnc2c(C(F)(F)F)cccc12 | > 100 µM | > 100 µM | 36.9 µM | > 100 µM | 17.5 µM | 37 µM | > 100 µM | > 100 µM | 41.6 µM | > 100 µM | 50.1 µM | > 100 µM | > 100 µM | > 100 µM | 17 µM | 50.4 µM | > 100 µM | > 100 µM | – | –
13 | COc1ccc(/C=C/C(=O)/C=C(/C=C/c2ccc(OC)c(OC)c2)OB(F)F)cc1OC | 0.449 µM | 6.17 µM | 2 µM | 6.88 µM | 2.46 µM | 7.05 µM | 1.49 µM | 3.23 µM | 1.13 µM | 2.68 µM | 0.321 µM | 1.09 µM | 1.81 µM | 4.39 µM | 1.71 µM | 4.89 µM | 0.323 µM | 2.63 µM | 1.03 µM | 4.95 µM
14 | Cn1cc(-c2nc(-c3c[nH]c4ncccc34)cs2)c2cc(Cl)ccc21 | 4.27 µM | > 100 µM | 11.9 µM | > 100 µM | 25.3 µM | > 100 µM | 7.48 µM | > 100 µM | 27.3 µM | > 100 µM | 4.34 µM | > 100 µM | 13.3 µM | > 100 µM | 2.93 µM | 18.4 µM | 5.51 µM | > 100 µM | – | –
